Measurements taken from patent publication US20230190777A1, “MAMMALIAN MILK OLIGOSACCHARIDES PREVENT VIRAL INFECTION OF HUMAN EPITHELIUM” (The Regents of the University of California, priority 2020, published 2023).
Like-named read-outs stand apart in the source and are kept apart here.

Legend:
Tulane virus = Tulane virus infection of MK2-LLC cells after HMO pre-incubation (imaging of adherent cells); type: cell-based, monkey; settings: HMO 2 mg/ml pre-incubated 16 hours, MOI 0.001, compared to cells in the absence of an HMO (FIG. 1)
[1] = system: human coronavirus (HCoV-229E); assay: HCoV-229E infection of A549 cells after HMO pre-incubation (imaging of adherent cells); type: cell-based; settings: HMO 2 mg/ml pre-incubated 16 hours, MOI 0.01, up to three days post-infection (FIG. 2)
Description: Monkey kidney epithelial (MK2-LLC) cells or human alveolar epithelial (A549) cells were seeded in 12-well plates at 1E5 cells per well.
24-hours post incubation, cells were washed with serum-free media and incubated with the particular HMO at 2 mg/ml final concentration.
16-hours post HMO incubation, the particular virus (for MK2-LLC cells this was Tulane virus, at a multiplicity of infection (MOI) of 0.001; for A549 cells this was human coronavirus (HCoV-229E), at an MOI of 0.01) was added and infection was allowed to proceed.
Images of adherent (live) cells were recorded two-days post infection after aspirating and washing cells with PBS. All wells were washed on Day 3 prior to imaging.
It was hypothesized that HMOs enhance cellular adhesion, cell structural integrity and modulate tight junction proteins as a generalized function regardless of the organ from which the epithelial cells are derived, and this function in turn alters the response to pathogenic challenges. […] As proof-of-concept, human alveolar epithelial (A549) cells were incubated in the presence of physiological levels of an HMO (2′-FL or 3′-SL) for 16 hours and infected the cells with a human coronavirus (HCoV-229E).

[2] = system: human coronavirus (HCoV-229E); type: cell-based; settings: A549 cells, MOI 0.01, three days post infection (FIG. 3)
[3] = system: human coronavirus (HCoV-229E); type: cell-based; settings: HMO 2 mg/ml or 5 mg/ml for 16 hours before HCoV-229E (MOI 0.01), 48 hours of viral infection (FIG. 4)
[4] = system: Type I (IFN-α1, IFN-β1) and Type III interferons (IFN-λ1, IFN-λ2, and IFN-λ3); assay: Host-cell interferon response during HCoV-229E infection of A549 cells (real-time PCR); type: cell-based, human; settings: HMO 2 mg/ml pre-incubated 16 hours, MOI 0.01, 24 hours post infection (FIG. 6)
[5] = HMO 2 mg/ml added simultaneously with HCoV-229E ('During')
[6] = HMO 2 mg/ml added two hours post viral adsorption ('After')

2′-Fucosyllactose [2′-FL]
cellular adherence and cell viability in the presence of Tulane virus (Tulane virus): increased cellular adherence and cell viability
A549 epithelial cell morphology after HCoV-229E infection [1]: little or no change in A549 epithelial cell morphology
loss of adherent cells, virus-mediated loss of cell viability and cytopathogenic effects [2, 5]: reduced the loss of adherent cells, the virus-mediated loss of cell viability and the cytopathogenic effects
loss of adherent cells, virus-mediated loss of cell viability and cytopathogenic effects [2, 6]: reduced the loss of adherent cells, the virus-mediated loss of cell viability and the cytopathogenic effects
A549 cell viability (live cell fluorescence, Calcein-AM) [3]: retain viability
Type I and Type III interferon response (fold-induction) during HCoV-229E infection [4]: dramatically attenuated

CC(=O)N[C@H]1[C@H]([C@H](O)[C@H](O)CO)O[C@@](O[C@H]2[C@@H](O)[C@@H](CO)O[C@@H](O[C@H]3[C@H](O)[C@@H](O)C(O)O[C@@H]3CO)[C@@H]2O)(C(=O)O)C[C@@H]1O (stereo partly shown) [3′-SL, 3′-sialyllactose]
cellular adherence and cell viability in the presence of Tulane virus (Tulane virus): increased cellular adherence and cell viability
A549 epithelial cell morphology after HCoV-229E infection [1]: little or no change in A549 epithelial cell morphology
loss of adherent cells, virus-mediated loss of cell viability and cytopathogenic effects [2, 5]: reduced the loss of adherent cells, the virus-mediated loss of cell viability and the cytopathogenic effects
loss of adherent cells, virus-mediated loss of cell viability and cytopathogenic effects [2, 6]: reduced the loss of adherent cells, the virus-mediated loss of cell viability and the cytopathogenic effects
A549 cell viability (live cell fluorescence, Calcein-AM) [3]: retain viability
Type I and Type III interferon response (fold-induction) during HCoV-229E infection [4]: dramatically attenuated

Lacto-N-fucopentaose I [LNFP I]
cellular adherence and cell viability in the presence of Tulane virus (Tulane virus): increased cellular adherence and cell viability
